These results are taken from patent publication US10736883B2, “Triazole furan compounds as agonists of the APJ receptor” (AMGEN INC., priority 2016, dated 2020).

In general, EC50 refers to the concentration at which the effect is half-maximal.

The target of the test is APJ receptor (Homo sapiens (Human), UniProt P35414). In words: [35S]GTPγS binding assay on membranes from CHO cells stably expressing human APJ receptor. The test is classed as biochemical. As to conditions: membranes of CHO cells stably expressing human APJ receptor, means of several independent experiments, read-out: Activity hAPJ SPA EC50 IP. The method, then: The human APJ receptor was cloned by polymerase chain reaction and the gene encoding the receptor was subcloned in pFLAG-CMV™-3 expression vector (Sigma, Saint Louis, Mo. USA) in-house at Amgen. A GTPγS binding assay was performed on membranes prepared from CHO cells stably expressing human APJ receptor. The optimum experimental conditions for the concentrations of GDP, MgCl2, and NaCl in the assay buffer were initially determined. The assay was performed in assay buffer [20 mM HEPES, pH 7.5, 5 mM MgCl2, and 0.1% (w/v) BSA with 200 mM NaCl, 3 μM GDP] and membranes expressing human APJ receptor/well along with WGA PS beads. The reaction was initiated by addition of 0.2 nM [^35S]GTPγS (Perkin Elmer Life and Analytical Sciences, Waltham USA) in the absence or presence of various ligands and incubated at RT for 90 min. Nonspecific binding was determined in the presence of 100 μM GTPγS and was always less than 0.2% of total binding. All the results presented are means of several independent experiments and analyzed by non-linear regression methods using commercially available program Prism (GraphPad, San Diego, Calif.) to obtain EC50 detailed in Table 26.
(In general: Binding of GTPγS marks nucleotide exchange on a G protein.)

APJ receptor, sequence (P35414 whole entry): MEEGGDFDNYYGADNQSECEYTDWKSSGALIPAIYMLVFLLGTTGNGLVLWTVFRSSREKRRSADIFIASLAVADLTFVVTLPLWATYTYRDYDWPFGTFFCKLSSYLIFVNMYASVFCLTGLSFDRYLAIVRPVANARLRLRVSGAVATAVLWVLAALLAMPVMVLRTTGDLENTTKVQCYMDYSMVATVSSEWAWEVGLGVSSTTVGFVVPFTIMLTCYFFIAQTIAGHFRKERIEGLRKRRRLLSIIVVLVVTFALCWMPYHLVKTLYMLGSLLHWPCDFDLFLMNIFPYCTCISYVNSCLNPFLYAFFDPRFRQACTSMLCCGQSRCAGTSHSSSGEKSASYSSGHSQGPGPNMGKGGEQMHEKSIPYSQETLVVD

In the case of `COCC(COC)n1c(NS(=O)(=O)[C@@H](C)[C@@H](OC(C)C)c2ncc(Cl)cn2)nnc1-c1ccc(C)o1` [Example 392.0, (1S,2S)-1-(5-chloro-2-pyrimidinyl)-N-(4-(1,3-dimethoxy-2-propanyl)-5-(5-methyl-2-furanyl)-4H-1,2,4-triazol-3-yl)-1-(2-propanyloxy)-2-propanesulfonamide], the EC50 was found to be 550 pM.
The figure for “(1R,2R)-N-(4-(2,6-dimethoxyphenyl)-5-(5-methyl-2-furanyl)-4H-1,2,4-triazol-3-yl)-1-hydroxy-1-(5-methyl-2-pyrimidinyl)-2-propanesulfonamide or (1S,2S)-N-(4-(2,6-dimethoxyphenyl)-5-(5-methyl-2-furanyl)-4H-1,2,4-triazol-3-yl)-1-hydroxy-1-(5-methyl-2-pyrimidinyl)-2-propanesulfonamide [Example 244.0]” is 940 pM; for `COc1cccc(OC)c1-n1c(NS(=O)(=O)[C@H]2C[C@@H](O)CN(c3ncc(F)cc3C#N)C2)nnc1-c1ccc(C)o1` (racemic) [Example 331.0, (3S,5R)-1-(3-Cyano-5-fluoropyridin-2-yl)-N-(4-(2,6-dimethoxyphenyl)-5-(5-methylfuran-2-yl)-4H-1,2,4-triazol-3-yl)-5-hydroxypiperidine-3-sulfonamide and (3R,5S)-1-(3-cyano-5-fluoropyridin-2-yl)-N-(4-(2,6-dimethoxyphenyl)-5-(5-methylfuran-2-yl)-4H-1,2,4-triazol-3-yl)-5-hydroxypiperidine-3-sulfonamide] it is 450 pM; for `COc1cccc(OC)c1-n1c(NS(=O)(=O)[C@@H](C)CN2C(=O)CCC[C@]2(C)C#N)nnc1-c1ccco1` (single isomer, unassigned) [Example 341.0] it is 81000 pM.
The figure for `COc1ncnc(OC)c1-n1c(NS(=O)(=O)[C@@H](C)[C@H](C)c2ncc(Cl)cn2)nnc1-c1ccc(C)o1` [Example 383.0, (2S,3R)-3-(5-Chloropyrimidin-2-yl)-N-(4-(4,6-dimethoxypyrimidin-5-yl)-5-(5-methylfuran-2-yl)-4H-1,2,4-triazol-3-yl)butane-2-sulfonamide] is 60 pM; for `COc1cccc(OC)c1-n1c(NS(=O)(=O)[C@@H]2CCCN(C(=O)N(C)C)C2)nnc1-c1ccco1` (single isomer, unassigned) [Example 340.0, (S)-3-(N-(4-(2,6-Dimethoxyphenyl)-5-(furan-2-yl)-4H-1,2,4-triazol-3-yl)sulfamoyl)-N,N-dimethylpiperidine-1-carboxamide or (R)-3-(N-(4-(2,6-dimethoxyphenyl)-5-(furan-2-yl)-4H-1,2,4-triazol-3-yl)sulfamoyl)-N,N-dimethylpiperidine-1-carboxamide] it is 75000 pM.
Regarding `[2H]C([2H])([2H])c1ccc(-c2nnc(NS(=O)(=O)[C@@H](C)[C@H](C)c3ncc(F)cn3)n2-c2c(OC)ncnc2OC)o1` [Example 395.0, (2S,3R)—N-(4-(4,6-Dimethoxy-5-pyrimidinyl)-5-(5-trideuteromethyl-2-furanyl)-4H-1,2,4-triazol-3-yl)-3-(5-fluoro-2-pyrimidinyl)-2-butanesulfonamide], the EC50 is 260 pM.
For `COc1ncnc(OC)c1-n1c(NS(=O)(=O)[C@@H](C)[C@H](C)c2ccc(Cl)cn2)nnc1-c1ccc(C)o1` [Example 400.0, (2S,3R)-3-(5-chloro-2-pyridinyl)-N-(4-(4,6-dimethoxy-5-pyrimidinyl)-5-(5-methyl-2-furanyl)-4H-1,2,4-triazol-3-yl)-2-butanesulfonamide], the EC50 was found to be 100 pM.
For `COc1cccc(OC)c1-n1c(NS(=O)(=O)[C@H](C)Cc2ncc(F)cc2NC(C)=O)nnc1-c1ccco1` (racemic) [Example 28.0, N-(2-((2R)-2-((4-(2,6-dimethoxyphenyl)-5-(2-furanyl)-4H-1,2,4-triazol-3-yl)sulfamoyl)propyl)-5-fluoro-3-pyridinyl)acetamide and N-(2-((2S)-2-((4-(2,6-dimethoxyphenyl)-5-(2-furanyl)-4H-1,2,4-triazol-3-yl)sulfamoyl)propyl)-5-fluoro-3-pyridinyl)acetamide] the value was 480 pM.
For the compound `COc1cccc(OC)c1-n1c(NS(=O)(=O)CCc2ncc(Cl)cc2-c2ccncc2)nnc1-c1ccco1` [Example 222.0, 2-(5-chloro-3,4′-bipyridin-2-yl)-N-(4-(2,6-dimethoxyphenyl)-5-(2-furanyl)-4H-1,2,4-triazol-3-yl)ethanesulfonamide], the 50% effective concentration (EC50) turned out to be 310 pM.
Take `COc1cccc(OC)c1-n1c(NS(=O)(=O)[C@@H](C)[C@H](O)c2ccc(C#N)cn2)nnc1-c1ccc(C)o1` (single isomer, unassigned) [Example 40.0, (1R,2S)-1-(5-cyano-2-pyridinyl)-N-(4-(2,6-dimethoxyphenyl)-5-(5-methyl-2-furanyl)-4H-1,2,4-triazol-3-yl)-1-hydroxy-2-propanesulfonamide or (1S,2R)-1-(5-cyano-2-pyridinyl)-N-(4-(2,6-dimethoxyphenyl)-5-(5-methyl-2-furanyl)-4H-1,2,4-triazol-3-yl)-1-hydroxy-2-propanesulfonamide]: the EC50 was 11000 pM.
The figure for `CCc1ccc(-c2nnc(NS(=O)(=O)CCc3ncc(F)cn3)n2-c2c(OC)cccc2OC)o1` [Example 98.0, N-(4-(2,6-dimethoxyphenyl)-5-(5-ethyl-2-furanyl)-4H-1,2,4-triazol-3-yl)-2-(5-fluoro-2-pyrimidinyl)ethanesulfonamide] is 450 pM; for `COc1cccc(OC)c1-n1c(NS(=O)(=O)C[C@@H](C)c2ncc(F)cn2)nnc1-c1ccc(C)o1` (single isomer, unassigned) [Example 126.0, (S)—N-(4-(2,6-Dimethoxyphenyl)-5-(5-methylfuran-2-yl)-4H-1,2,4-triazol-3-yl)-2-(5-fluoropyrimidin-2-yl)propane-1-sulfonamide or (R)—N-(4-(2,6-dimethoxyphenyl)-5-(5-methylfuran-2-yl)-4H-1,2,4-triazol-3-yl)-2-(5-fluoropyrimidin-2-yl)propane-1-sulfonamide] it is 450 pM.
Consider `COc1cccc(OC)c1-n1c(NS(=O)(=O)[C@H](C)[C@H](OC)c2ncc(F)cn2)nnc1-c1ccc(C)o1` (single isomer, unassigned) [Example 122.0, (1R,2R)-N-(4-(2,6-dimethoxyphenyl)-5-(5-methylfuran-2-yl)-4H-1,2,4-triazol-3-yl)-1-(5-fluoropyrimidin-2-yl)-1-methoxypropane-2-sulfonamide or (1S,2S)-N-(4-(2,6-dimethoxyphenyl)-5-(5-methylfuran-2-yl)-4H-1,2,4-triazol-3-yl)-1-(5-fluoropyrimidin-2-yl)-1-methoxypropane-2-sulfonamide], for which the EC50 worked out at 220 pM.
As for `COc1cccc(OC)c1-n1c(NS(=O)(=O)[C@H](C)[C@@H](O)c2ccnc3c2OCCC3)nnc1-c1ccc(C)o1` (single isomer, unassigned) [Example 293.0, (1R,2S)-1-(3,4-Dihydro-2H-pyrano[3,2-b]pyridin-8-yl)-N-(4-(2,6-dimethoxyphenyl)-5-(5-methyl-2-furanyl)-4H-1,2,4-triazol-3-yl)-1-hydroxy-2-propanesulfonamide or (1S,2R)-1-(3,4-dihydro-2H-pyrano[3,2-b]pyridin-8-yl)-N-(4-(2,6-dimethoxyphenyl)-5-(5-methyl-2-furanyl)-4H-1,2,4-triazol-3-yl)-1-hydroxy-2-propanesulfonamide], the EC50 stood at 5500 pM.
